Experimental findings from paper PMC5218480 (PLoS ONE, 2017) are described below.

The test system of this test is MV-4-11 cells. Put plainly: Gene expression microarray analysis (Affymetrix PrimeView) and GSEA. It is filed as cell-based, human. Also noted: RFU PODN (11730768_x_at) / Fold change /veh PODN (11730768_x_at) / RFU LINC00158 (11744669_a_at) / Fold change /veh LINC00158 (11744669_a_at) / RFU DUSP10 (11751237_a_at) / Fold change /veh DUSP10 (11751237_a_at) / RFU ID3 (11757404_x_at) / Fold change /veh ID3 (11757404_x_at) / RFU PLEKHG5 (11737974_s_at) / Fold change /veh PLEKHG5 (11737974_s_at) / RFU LRRC4B (11730491_at) / Fold change /veh LRRC4B (11730491_at) / RFU GIMAP4 (11747438_a_at) / Fold change /veh GIMAP4 (11747438_a_at) / RFU KRT8 (11758183_x_at) / Fold change /veh KRT8 (11758183_x_at) / RFU CNN1 (11734310_a_at) / Fold change /veh CNN1 (11734310_a_at) / RFU VPS37D (11726825_at) / Fold change /veh VPS37D (11726825_at) / RFU C10orf10 (11716522_x_at) / Fold change /veh C10orf10 (11716522_x_at) / RFU KIR2DL2 /// KIR2DL4 /// KIR2DL5A /// KIR2DL5B /// KIR2DS1 /// KIR2DS2 /// KIR2DS3 /// KIR2DS4 /// KIR3DL3 /// KIR3DL3 /// KIR3DS1 (11738374_at) / Fold change /veh KIR2DL2 /// KIR2DL4 /// KIR2DL5A /// KIR2DL5B /// KIR2DS1 /// KIR2DS2 /// KIR2DS3 /// KIR2DS4 /// KIR3DL3 /// KIR3DL3 /// KIR3DS1 (11738374_at) / RFU C1QL1 (11718748_at) / Fold change /veh C1QL1 (11718748_at) / RFU TMPRSS4 (11747572_a_at) / Fold change /veh TMPRSS4 (11747572_a_at) / RFU HAMP (11756126_x_at) / Fold change /veh HAMP (11756126_x_at) / RFU RNFT2 (11725882_a_at) / Fold change /veh RNFT2 (11725882_a_at) / RFU NR4A2 (11747474_a_at) / Fold change /veh NR4A2 (11747474_a_at) / RFU ABCC12 (11746883_a_at) / Fold change /veh ABCC12 (11746883_a_at) / RFU TMEM136 (11760407_x_at) / Fold change /veh TMEM136 (11760407_x_at) / RFU CLDN22 /// WWC2 (11732394_at) / Fold change /veh CLDN22 /// WWC2 (11732394_at) / RFU HLA-DPB1 (11760878_x_at) / Fold change /veh HLA-DPB1 (11760878_x_at) / RFU SPINT1 (11716480_a_at) / Fold change /veh SPINT1 (11716480_a_at) / RFU GAP43 (11754022_s_at) / Fold change /veh GAP43 (11754022_s_at) / RFU A4GNT (11735810_at) / Fold change /veh A4GNT (11735810_at) / RFU PRB3 (11715151_x_at) / Fold change /veh PRB3 (11715151_x_at) / RFU TUBB4B (11761932_at) / Fold change /veh TUBB4B (11761932_at) / RFU CAPN14 (11732068_a_at) / Fold change /veh CAPN14 (11732068_a_at) / RFU TMCC2 (11721928_a_at) / Fold change /veh TMCC2 (11721928_a_at) / RFU IRGQ (11745062_a_at) / Fold change /veh IRGQ (11745062_a_at) / RFU FAM174B (11720279_a_at) / Fold change /veh FAM174B (11720279_a_at) / RFU TMPRSS4 (11748680_a_at) / Fold change /veh TMPRSS4 (11748680_a_at) / RFU FAM212B (11763350_a_at) / Fold change /veh FAM212B (11763350_a_at) / RFU PLEKHG5 (11743358_a_at) / Fold change /veh PLEKHG5 (11743358_a_at) / RFU ZSCAN30 (11745921_a_at) / Fold change /veh ZSCAN30 (11745921_a_at) / RFU CMKLR1 (11741424_a_at) / Fold change /veh CMKLR1 (11741424_a_at) / RFU LOC101060620 /// MAPK8IP1 (11723275_at) / Fold change /veh LOC101060620 /// MAPK8IP1 (11723275_at) / RFU SPTSSB (11747773_x_at) / Fold change /veh SPTSSB (11747773_x_at) / RFU PRSS12 (11739890_at) / Fold change /veh PRSS12 (11739890_at) / RFU BIN1 (11741810_x_at) / Fold change /veh BIN1 (11741810_x_at) / RFU WNT11 (11732464_a_at) / Fold change /veh WNT11 (11732464_a_at) / RFU C10orf10 (11716521_a_at) / Fold change /veh C10orf10 (11716521_a_at) / RFU C5orf56 (11738089_at) / Fold change /veh C5orf56 (11738089_at) / RFU CYB561 (11721691_x_at) / Fold change /veh CYB561 (11721691_x_at) / RFU ANKRD19P (11752326_a_at) / Fold change /veh ANKRD19P (11752326_a_at) / RFU OR2T12 /// OR2T33 /// OR2T8 (11738714_s_at) / Fold change /veh OR2T12 /// OR2T33 /// OR2T8 (11738714_s_at) / RFU VCAN (11748164_a_at) / Fold change /veh VCAN (11748164_a_at) / RFU JSRP1 (11732532_at) / Fold change /veh JSRP1 (11732532_at) / RFU KRTAP10-11 (11738290_x_at) / Fold change /veh KRTAP10-11 (11738290_x_at) / RFU MYO3A (11730013_a_at) / Fold change /veh MYO3A (11730013_a_at) / RFU EBF3 (11725865_a_at) / Fold change /veh EBF3 (11725865_a_at) / RFU CAMK2N1 (11719241_x_at) / Fold change /veh CAMK2N1 (11719241_x_at) / RFU C5orf56 (11738088_a_at) / Fold change /veh C5orf56 (11738088_a_at) / RFU OLFML3 (11715873_a_at) / Fold change /veh OLFML3 (11715873_a_at) / RFU LOC100653217 /// NTM (11731650_a_at) / Fold change /veh LOC100653217 /// NTM (11731650_a_at) / RFU MAPK11 (11762145_a_at) / Fold change /veh MAPK11 (11762145_a_at) / RFU FIZ1 (11724087_x_at) / Fold change /veh FIZ1 (11724087_x_at) / RFU OASL (11726364_x_at) / Fold change /veh OASL (11726364_x_at) / RFU SOX15 (11748057_x_at) / Fold change /veh SOX15 (11748057_x_at) / RFU CD79A (11719716_a_at) / Fold change /veh CD79A (11719716_a_at) / RFU HIST1H1D (11736915_at) / Fold change /veh HIST1H1D (11736915_at) / RFU CASKIN2 (11723855_a_at) / Fold change /veh CASKIN2 (11723855_a_at) / RFU LOC730098 (11760151_x_at) / Fold change /veh LOC730098 (11760151_x_at) / RFU OR4N2 (11742367_at) / Fold change /veh OR4N2 (11742367_at) / RFU PRRT2 (11749266_a_at) / Fold change /veh PRRT2 (11749266_a_at) / RFU SNX32 (11753110_a_at) / Fold change /veh SNX32 (11753110_a_at) / RFU CDHR5 (11726645_a_at) / Fold change /veh CDHR5 (11726645_a_at) / RFU RCAN1 (11760418_a_at) / Fold change /veh RCAN1 (11760418_a_at) / RFU FAM167A (11723789_a_at) / Fold change /veh FAM167A (11723789_a_at) / RFU FAM26E (11764081_at) / Fold change /veh FAM26E (11764081_at) / RFU ISYNA1 (11749810_s_at) / Fold change /veh ISYNA1 (11749810_s_at) / RFU ACY1 (11761880_at) / Fold change /veh ACY1 (11761880_at) / RFU 11764098_at / Fold change /veh 11764098_at / RFU SAMD14 (11745864_x_at) / Fold change /veh SAMD14 (11745864_x_at) / RFU NPB (11741838_a_at) / Fold change /veh NPB (11741838_a_at) / RFU TMPRSS6 (11731388_a_at) / Fold change /veh TMPRSS6 (11731388_a_at) / RFU KRTAP10-2 (11738614_at) / Fold change /veh KRTAP10-2 (11738614_at) / RFU ARHGAP8 /// PRR5-ARHGAP8 (11727945_x_at) / Fold change /veh ARHGAP8 /// PRR5-ARHGAP8 (11727945_x_at) / RFU KRTAP5-7 /// NADSYN1 (11734609_at) / Fold change /veh KRTAP5-7 /// NADSYN1 (11734609_at) / RFU RASL12 (11751679_a_at) / Fold change /veh RASL12 (11751679_a_at) / RFU CDKN2B (11736163_a_at) / Fold change /veh CDKN2B (11736163_a_at) / RFU PRF1 (11729649_at) / Fold change /veh PRF1 (11729649_at) / RFU, ZNF638 /// ZNF638-IT1 / Fold change vs veh, ZNF638 /// ZNF638-IT1 / RFU, PANK3 / Fold change vs veh, PANK3 / RFU, SH3YL1 / Fold change vs veh, SH3YL1 / RFU, ZEB2 / Fold change vs veh, ZEB2 / RFU, NRIP1 / Fold change vs veh, NRIP1 / RFU, PTTG1IP / Fold change vs veh, PTTG1IP / RFU, CAPN2 / Fold change vs veh, CAPN2 / RFU, MED14 / Fold change vs veh, MED14 / RFU, SNORA58 / Fold change vs veh, SNORA58 / RFU, C1orf63 / Fold change vs veh, C1orf63 / RFU, LRRFIP1 / Fold change vs veh, LRRFIP1 / RFU, NDUFAF7 / Fold change vs veh, NDUFAF7 / RFU, SLC12A2 / Fold change vs veh, SLC12A2 / RFU, IBTK / Fold change vs veh, IBTK / RFU, ESF1 / Fold change vs veh, ESF1 / Fold change vs veh, TMEM50B / RFU, TAOK1 / Fold change vs veh, TAOK1 / RFU, ACBD3 / Fold change vs veh, ACBD3 / RFU, TMA16 / Fold change vs veh, TMA16 / RFU, RWDD3 / Fold change vs veh, RWDD3 / RFU, BCAT1 / Fold change vs veh, BCAT1 / RFU, EDEM3 / Fold change vs veh, EDEM3 / RFU, TMEM33 / Fold change vs veh, TMEM33 / RFU, WDR75 / Fold change vs veh, WDR75 / RFU, AHCTF1 / Fold change vs veh, AHCTF1 / RFU, TFRC / Fold change vs veh, TFRC / RFU, ZDHHC17 / Fold change vs veh, ZDHHC17 / RFU, NOM1 / Fold change vs veh, NOM1 / RFU, ARL8B / Fold change vs veh, ARL8B / RFU, ZBTB11 / Fold change vs veh, ZBTB11 / RFU, TAMM41 / Fold change vs veh, TAMM41 / RFU, KIAA1704 /// LOC100996395 / Fold change vs veh, KIAA1704 /// LOC100996395 / RFU, ING1 / Fold change vs veh, ING1 / RFU, TRMT61B / Fold change vs veh, TRMT61B / RFU, FUBP3 / Fold change vs veh, FUBP3 / RFU, TP53 / Fold change vs veh, TP53 / RFU, TNKS2 / Fold change vs veh, TNKS2 / RFU, ZFP14 / Fold change vs veh, ZFP14 / RFU, ACTR2 / Fold change vs veh, ACTR2 / RFU, PPP3R1 / Fold change vs veh, PPP3R1 / RFU, PIK3R1 / Fold change vs veh, PIK3R1 / RFU, HNRNPA1 / Fold change vs veh, HNRNPA1 / RFU, RNF170 / Fold change vs veh, RNF170 / RFU, ZNF28 / Fold change vs veh, ZNF28 / RFU, RNGTT / Fold change vs veh, RNGTT / RFU, OGT / Fold change vs veh, OGT / RFU, BRD1 / Fold change vs veh, BRD1 / RFU, MARS / Fold change vs veh, MARS / RFU, ZNF655 / Fold change vs veh, ZNF655 / RFU, FAHD1 / Fold change vs veh, FAHD1 / RFU, BDP1 / Fold change vs veh, BDP1 / RFU, LRRCC1 / Fold change vs veh, LRRCC1 / RFU, ARID1A / Fold change vs veh, ARID1A / RFU, ZNF146 / Fold change vs veh, ZNF146 / RFU, ZNF330 / Fold change vs veh, ZNF330 / RFU, GPN3 / Fold change vs veh, GPN3 / RFU, C9orf123 / Fold change vs veh, C9orf123 / RFU, N4BP2L2 / Fold change vs veh, N4BP2L2 / RFU, ARFIP1 / Fold change vs veh, ARFIP1 / RFU, FAM179B / Fold change vs veh, FAM179B / RFU, BCL10 / Fold change vs veh, BCL10 / RFU, UHRF1BP1L / Fold change vs veh, UHRF1BP1L / RFU, BET1 / Fold change vs veh, BET1 / RFU, CNOT2 / Fold change vs veh, CNOT2 / RFU, ZNF268 / Fold change vs veh, ZNF268 / Fold change vs veh, ZNF507 / RFU, DGCR2 / Fold change vs veh, DGCR2 / RFU, WDSUB1 / Fold change vs veh, WDSUB1 / Fold change vs veh, HSP90B1 /// MIR3652 / RFU, ADSS / Fold change vs veh, ADSS / RFU, GK / Fold change vs veh, GK / RFU, ZNF148 / Fold change vs veh, ZNF148 / RFU, TAF9 / Fold change vs veh, TAF9 / RFU, SLC1A5 / Fold change vs veh, SLC1A5 / RFU, SLMO2 / Fold change vs veh, SLMO2 / RFU, ABCC4 / Fold change vs veh, ABCC4 / RFU, LOC101060439 /// RAP1B / Fold change vs veh, LOC101060439 /// RAP1B / RFU, RFX7 / Fold change vs veh, RFX7 / RFU, GTPBP10 / Fold change vs veh, GTPBP10 / RFU, CNEP1R1 / Fold change vs veh, CNEP1R1 / RFU, BIVM-ERCC5 /// ERCC5 / Fold change vs veh, BIVM-ERCC5 /// ERCC5 / RFU, ILF3 / Fold change vs veh, ILF3 / RFU 11762660_at / Fold change /veh 11762660_at / RFU VCAN (11757783_s_at) / Fold change /veh VCAN (11757783_s_at) / RFU DDX43 (11728927_at) / Fold change /veh DDX43 (11728927_at) / RFU KRT8 (11758188_x_at) / Fold change /veh KRT8 (11758188_x_at) / RFU NKD1 (11759106_at) / Fold change /veh NKD1 (11759106_at) / RFU SRD5A1 (11742802_a_at) / Fold change /veh SRD5A1 (11742802_a_at) / RFU TPSAB1 /// TPSB2 (11721975_s_at) / Fold change /veh TPSAB1 /// TPSB2 (11721975_s_at) / RFU GSTM3 (11746129_a_at) / Fold change /veh GSTM3 (11746129_a_at) / RFU IL23R (11737362_x_at) / Fold change /veh IL23R (11737362_x_at) / RFU TMEM51 (11727254_a_at) / Fold change /veh TMEM51 (11727254_a_at) / RFU PIWIL2 (11732686_x_at) / Fold change /veh PIWIL2 (11732686_x_at) / RFU ORM1 (11744905_x_at) / Fold change /veh ORM1 (11744905_x_at) / RFU CCDC152 (11743942_at) / Fold change /veh CCDC152 (11743942_at) / RFU ECM1 (11717891_a_at) / Fold change /veh ECM1 (11717891_a_at) / RFU IL23R (11748794_a_at) / Fold change /veh IL23R (11748794_a_at) / RFU TNFAIP8L3 (11732012_x_at) / Fold change /veh TNFAIP8L3 (11732012_x_at) / RFU MBOAT4 (11741988_at) / Fold change /veh MBOAT4 (11741988_at) / RFU 11764193_at / Fold change /veh 11764193_at / RFU TMEM53 (11763286_at) / Fold change /veh TMEM53 (11763286_at) / RFU MAGEB2 (11727129_at) / Fold change /veh MAGEB2 (11727129_at) / RFU TMEM200A (11744735_a_at) / Fold change /veh TMEM200A (11744735_a_at) / RFU CCDC152 (11751479_a_at) / Fold change /veh CCDC152 (11751479_a_at) / RFU FAM211A (11726209_a_at) / Fold change /veh FAM211A (11726209_a_at) / RFU RGS16 (11746705_a_at) / Fold change /veh RGS16 (11746705_a_at) / RFU VCAN (11755009_s_at) / Fold change /veh VCAN (11755009_s_at) / RFU RHOB (11743442_s_at) / Fold change /veh RHOB (11743442_s_at) / RFU RGS16 (11720943_a_at) / Fold change /veh RGS16 (11720943_a_at) / RFU RGS16 (11720944_at) / Fold change /veh RGS16 (11720944_at) / RFU, VPS4B / Fold change vs veh, VPS4B / RFU, CREB1 / Fold change vs veh, CREB1 / RFU, DNAJC13 / Fold change vs veh, DNAJC13 / RFU, GNAQ / Fold change vs veh, GNAQ / RFU, CDK5R1 / Fold change vs veh, CDK5R1 / RFU, ZRANB3 / Fold change vs veh, ZRANB3 / RFU, CUL4A / Fold change vs veh, CUL4A / RFU, CCNY / Fold change vs veh, CCNY / RFU, UFL1 / Fold change vs veh, UFL1 / RFU, COG3 / Fold change vs veh, COG3 / RFU, DIAPH2 / Fold change vs veh, DIAPH2 / RFU, SKA2 / Fold change vs veh, SKA2 / RFU, AFF3 / Fold change vs veh, AFF3 / RFU, LMF1 / Fold change vs veh, LMF1 / RFU, IPO11 / Fold change vs veh, IPO11 / RFU, DFFB / Fold change vs veh, DFFB / RFU, FOXP1 / Fold change vs veh, FOXP1 / RFU, CARD8 / Fold change vs veh, CARD8 / RFU, STRN3 / Fold change vs veh, STRN3 / RFU, ADK / Fold change vs veh, ADK / RFU, RASSF2 / Fold change vs veh, RASSF2 / RFU, WIPF1 / Fold change vs veh, WIPF1 / RFU, LARP1B / Fold change vs veh, LARP1B / RFU, RASA1 / Fold change vs veh, RASA1 / RFU, RB1 / Fold change vs veh, RB1 / RFU, PPFIA1 / Fold change vs veh, PPFIA1 / RFU, MAT2A / Fold change vs veh, MAT2A / RFU, CCT5 / Fold change vs veh, CCT5 / RFU, WDR92 / Fold change vs veh, WDR92 / RFU, CUX1 / Fold change vs veh, CUX1 / RFU, TTC7A / Fold change vs veh, TTC7A / RFU, TMEM135 / Fold change vs veh, TMEM135 / RFU, DEPTOR / Fold change vs veh, DEPTOR / RFU, CPM / Fold change vs veh, CPM / RFU, DNAJB6 / Fold change vs veh, DNAJB6 / RFU, CACNA2D3 / Fold change vs veh, CACNA2D3 / RFU, DTX4 / Fold change vs veh, DTX4 / RFU, TFCP2 / Fold change vs veh, TFCP2 / RFU, GMCL1 /// GMCL1P1 / Fold change vs veh, GMCL1 /// GMCL1P1 / RFU, AEBP2 / Fold change vs veh, AEBP2 / RFU, SNHG1 /// SNORD22 /// SNORD25 /// SNORD26 /// SNORD27 /// SNORD28 /// SNORD29 /// SNORD31 / Fold change vs veh, SNHG1 /// SNORD22 /// SNORD25 /// SNORD26 /// SNORD27 /// SNORD28 /// SNORD29 /// SNORD31 / Fold change (Aza/veh), C12orf56 (ProbeSet 11735607_a_at) / Fold change (ACY-1035/veh), C12orf56 (ProbeSet 11735607_a_at) / Fold change (Aza/veh), FGFR1OP (ProbeSet 11751329_s_at) / Fold change (ACY-1035/veh), FGFR1OP (ProbeSet 11751329_s_at) / Fold change (Aza/veh), VPS36 (ProbeSet 11739960_a_at) / Fold change (ACY-1035/veh), VPS36 (ProbeSet 11739960_a_at) / RFU SYPL1 (11715823_x_at) / Fold change /veh SYPL1 (11715823_x_at) / RFU IGFBP7 (11715501_s_at) / Fold change /veh IGFBP7 (11715501_s_at) / RFU REEP3 (11722064_at) / Fold change /veh REEP3 (11722064_at) / RFU IGLL1 (11728026_x_at) / Fold change /veh IGLL1 (11728026_x_at): dose or concentration left out as unconfirmed. As to conditions: ProbeSet 11716331_a_at; LIST D.

Structures are written as SMILES.

As for `Nc1ccc(-c2cccs2)cc1NC(=O)c1ccc2c(c1)cc(C1CC1)n2CCN1CCOCC1` [ACY-1035], the “RFU, DNAJB6” value is 348.58 RFU.
